Measurements from patent US9624268B2, “Oral peptide inhibitors of interleukin-23 receptor and their use to treat inflammatory bowel diseases” (Protagonist Therapeutics, Inc., priority 2014, dated 2017).

Tested on: Sprague Dawley rats with DSS-induced colitis
Experiment: Rat colitis model: 9 days of 3% DSS-containing drinking water
Format: in vivo
Settings: 100 mg/kg PO, QD
Experimental: Rat Colitis Model: 9 Days of 3% DSS-Containing Drinking Water
In this model, colitis was induced in SD rats by 9 days of ad lib exposure to drinking water containing 3% DSS. The disease activity index (DAI) score and ratio of colon weight:colon length were compared between three study groups (n=6 rats/group): vehicle, 3% DSS, and 3% DSS with positive control (sulfasalazine administered at 100 mg/kg PO, QD).
Acute colitis was induced by feeding female Sprague Dawley rats with 3% (wt/vol) DSS dissolved in drinking water. […] To quantify colitis with clinical activity, disease activity index (DAI) was determined daily for each animal as an average of three parameters: body weight change (scale 0-3), stool consistency (scale 0-3) and hemoccult blood (scale 0-3), as shown in Table 15. At necropsy, the entire colon was removed from the cecum to the rectum. The colon was measured for length, flushed with PBS to remove feces, weighed, and opened longitudinally to determine macroscopic score.

O=C(O)c1cc(/N=N/c2ccc(S(=O)(=O)Nc3ccccn3)cc2)ccc1O [sulfasalazine]
terminal ratio of colon weight:colon length, difference with and without treatment: significant
disease activity index (DAI) score compared to DSS alone (from Day 5): attenuated the disease score
